Values after ≈ are worked out from the molar mass of the structure shown.
Key:
[1] = target: T1, hTRPV3 (Homo sapiens (Human), UniProt Q8NET8); test: Whole-cell patch clamp, hTRPV3 Phase 1 / Phase 2 currents; assay type: cell-based
Summary of the method: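 Currents are activated by 20 μM 2-APB or by perfusate at 28 °C or warmer, in Ringer's solution, and quantified at ±80 mV.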

[2] = Aqueous solubility assay in Normal Ringer Solution; settings: Normal Ringer Solution; for Solubility Ringer (nM): room temperature
Procedure: Following vortex and incubation for a sufficient time (e.g. 40 minutes at room temperature), solutions were filtered, quenched with acetonitrile, and analyzed by Liquid Chromotography. Solubility Limits were determined by comparison to a standard curve.

[3] = target: T1, hTRPV3; test: hTRPV3 HAMA IC50 assay (Hamamatsu FDSS6000 calcium flux, TRex-293 cells)
Procedure: IC50s were calculated using CBIS from ChemInnovation (San Diego).

[4] = Phase 1 current, inward, whole-cell patch clamp, read-out: hTRPV3 Patch P1 Inwd
[5] = Phase 1 current, read-out: hTRPV3 (nM) (Phase 1)
[6] = Phase 2 current, inward, whole-cell patch clamp, read-out: hTRPV3 Patch P2 Inwd
[7] = Phase 2 current, read-out: hTRPV3 (nM) (Phase 2)

T1 sequence (Q8NET8 whole entry): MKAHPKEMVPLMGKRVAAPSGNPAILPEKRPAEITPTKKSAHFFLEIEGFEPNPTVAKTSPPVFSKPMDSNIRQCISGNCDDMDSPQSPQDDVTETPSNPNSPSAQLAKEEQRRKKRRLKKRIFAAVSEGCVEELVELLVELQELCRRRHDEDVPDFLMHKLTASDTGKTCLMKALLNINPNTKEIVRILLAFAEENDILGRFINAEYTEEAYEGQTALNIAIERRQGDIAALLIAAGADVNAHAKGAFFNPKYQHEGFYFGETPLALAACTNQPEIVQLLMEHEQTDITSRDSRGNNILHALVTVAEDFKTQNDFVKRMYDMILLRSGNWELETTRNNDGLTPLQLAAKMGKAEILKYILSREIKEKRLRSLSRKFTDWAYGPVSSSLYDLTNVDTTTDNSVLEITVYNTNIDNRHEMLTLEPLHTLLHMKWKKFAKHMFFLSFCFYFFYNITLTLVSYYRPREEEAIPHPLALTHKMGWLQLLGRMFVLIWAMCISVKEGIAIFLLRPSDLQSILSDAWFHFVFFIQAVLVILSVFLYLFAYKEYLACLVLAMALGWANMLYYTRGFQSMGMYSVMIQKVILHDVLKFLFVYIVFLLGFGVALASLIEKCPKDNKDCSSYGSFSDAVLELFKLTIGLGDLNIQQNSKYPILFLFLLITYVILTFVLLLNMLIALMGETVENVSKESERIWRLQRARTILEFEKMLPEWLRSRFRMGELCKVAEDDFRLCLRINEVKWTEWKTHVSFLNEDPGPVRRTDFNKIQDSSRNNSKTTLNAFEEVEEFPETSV

SMILES | IC50 [1, 4] | IC50 [1, 5] | IC50 [1, 7] | hTRPV3 HAMA IC50 (nM) (5 min) ([3]; 5 min) | hTRPV3 HAMA IC50 (nM) (30 min) ([3]; 30 min) | further results
NC(=O)c1cc(-c2ccccc2Cl)ccc1N1CC[C@H](Oc2ccc(C(F)(F)F)cn2)C1 [Compound 1-64, (S)-2′-chloro-4-(3-(5-(trifluoromethyl)pyridin-2-yloxy)pyrrolidin-1-yl)biphenyl-3-carboxamide] | 100 to 1000 nM | 145 nM | 160 nM | no fit (5 min) | – | IC50 [1, 6]: 100 to 1000 nM; Solubility Ringer (nM) [2]: BLQ
OCCCc1cc(-c2ccccc2Cl)ccc1N1CC[C@H](Oc2ccc(C(F)(F)F)cn2)C1 [Compound 1-164] | 100 to 1000 nM | 190 nM | – | no fit (5 min) | – | Solubility Ringer (nM) [2]: BLQ
OCCc1cc(Oc2ccccc2Cl)ccc1N1CC[C@H](Oc2ncccc2Cl)C1 [Compound 1-238, (S)-2-(5-(2-chlorophenoxy)-2-(3-(3-chloropyridin-2-yloxy)pyrrolidin-1-yl)phenyl)ethanol] | 10 to 100 nM | ~51 nM | – | – | – | Solubility Ringer (nM) [2]: BLQ; IC50 ([3]; hTRPV3 HAMA IC50 (nM) (5 min), 5 min): > 20000 nM; IC50 ([3]; hTRPV3 HAMA IC50 (nM) (30 min), 30 min): 16700 nM
OCc1ccc(-c2ccccc2)cc1N1CC[C@H](Oc2ccc(C(F)(F)F)cn2)C1 [Compound 1-180, (S)-(3-(3-(5-(trifluoromethyl)pyridin-2-yloxy)pyrrolidin-1-yl)biphenyl-4-yl)methanol] | > 1000 nM | 1550 nM | 1860 nM | no fit (5 min) no fit (30 min) | no fit (5 min) no fit (30 min) | IC50 [1, 6]: > 1000 nM; solubility at 40 min ([2]; saline or isotonic, kinetic from dmso stock): ~0.2 µM (≈ 0.0829 µg/mL)
O=[N+]([O-])c1cc(-c2ccccc2)ccc1N1CC[C@H](Oc2ccc(C(F)(F)F)cn2)C1 [Compound 1-66, (S)-2-(1-(3-nitrobiphenyl-4-yl)pyrrolidin-3-yloxy)-5-(trifluoromethyl)pyridine] | – | – | – | no fit (5 min) | – | hTRPV3 (nM) (Phase 1) [1]: Incomplete Block (Phase 1); Solubility Ringer (nM) [2]: BLQ
Cc1ccccc1-c1ccc(N2CC[C@H](Oc3ccc(C(F)(F)F)cn3)C2)c(CO)c1 [Compound 1-128, (S)-(2′-methyl-4-(3-(5-(trifluoromethyl)pyridin-2-yloxy)pyrrolidin-1-yl)biphenyl-3-yl)methanol] | 100 to 1000 nM | 114 nM | – | no fit (5 min) | – | Solubility Ringer (nM) [2]: BLQ
N#Cc1cc(-c2ccccc2)ccc1N1CC[C@H](Oc2ccc(C(F)(F)F)cn2)C1 [Compound 1-56, (S)-4-(3-(5-(trifluoromethyl)pyridin-2-yloxy)pyrrolidin-1-yl)biphenyl-3-carbonitrile] | – | – | ~504 nM | R2 fail (5 min) | – | IC50 [1, 6]: 100 to 1000 nM
CCc1ccccc1-c1ccc(CO)c(N2CC[C@H](Oc3ccc(C(F)(F)F)cn3)C2)c1 [Compound 1-227, (S)-(2′-ethyl-3-(3-(5-(trifluoromethyl)pyridin-2-yloxy)pyrrolidin-1-yl)biphenyl-4-yl)methanol] | 100 to 1000 nM | 200 nM | – | no fit (5 min) no fit (30 min) | no fit (5 min) no fit (30 min) | –
OCc1ccc(Oc2ccccc2Cl)cc1N1CC[C@H](Oc2ccc(C(F)(F)F)cn2)C1 [Compound 1-224, (S)-(4-(2-chlorophenoxy)-2-(3-(5-(trifluoromethyl)pyridin-2-yloxy)pyrrolidin-1-yl)phenyl)methanol] | 100 to 1000 nM | 161 nM | – | no fit (5 min) no fit (30 min) | no fit (5 min) no fit (30 min) | –
OCc1cc(-c2ccccc2C(F)(F)F)ccc1N1CC[C@H](Oc2ccc(C(F)(F)F)cn2)C1 [Compound 1-152, (S)-(2′-(trifluoromethyl)-4-(3-(5-(trifluoromethyl)pyridin-2-yloxy)pyrrolidin-1-yl)biphenyl-3-yl)methanol] | 10 to 100 nM | 20.4 nM | – | no fit (5 min) | – | –
O=[N+]([O-])c1ccccc1N1CC[C@H](Oc2ccc3cc(Cl)ccc3n2)C1 [Compound 1-68, (S)-6-chloro-2-(1-(2-nitrophenyl)pyrrolidin-3-yloxy)quinoline] | > 1000 nM | > 3200 nM | > 3200 nM | no fit (5 min) | – | IC50 [1, 6]: > 1000 nM
Cc1ccc(O[C@H]2CCN(c3ccc(-c4ccccn4)cc3CO)C2)nc1 [Compound 1-220, (S)-(2-(3-(5-methylpyridin-2-yloxy)pyrrolidin-1-yl)-5-(pyridin-2-yl)phenyl)methanol] | > 1000 nM | > 3200 nM | – | no fit (5 min) no fit (30 min) | no fit (5 min) no fit (30 min) | –
Nc1ccccc1N1CC[C@H](Oc2ccc3cc(Cl)ccc3n2)C1 [Compound 1-69, (S)-2-(3-(6-chloroquinolin-2-yloxy)pyrrolidin-1-yl)aniline] | – | – | – | no fit (5 in) | – | hTRPV3 (nM) (Phase 2) ([1]; Phase 2 current): Agonist (Phase 2)
FC(F)(F)c1ccc(O[C@@H]2CCN(c3ccccc3-c3ccccc3)C2)nc1 [Compound 1-28, (R)-2-(1-(biphenyl-2-yl)pyrrolidin-3-yloxy)-5-(trifluoromethyl)pyridine] | > 1000 nM | > 3200 nM | – | no fit (5 min) | – | –
OCc1ccc(-c2ccccc2Cl)cc1N1CC[C@H](Oc2ccc(C(F)(F)F)cn2)C1 [Compound 1-225, (S)-(2′-chloro-3-(3-(5-(trifluoromethyl)pyridin-2-yloxy)pyrrolidin-1-yl)biphenyl-4-yl)methanol] | 100 to 1000 nM | 215 nM | – | no fit (5 min) no fit (30 min) | no fit (5 min) no fit (30 min) | –
Nc1cc(-c2ccccc2)ccc1N1CC[C@H](Oc2ccc3cc(Cl)ccc3n2)C1 [Compound 1-71, (S)-4-(3-(6-chloroquinolin-2-yloxy)pyrrolidin-1-yl)biphenyl-3-amine] | – | > 3200 nM | > 3200 nM | no fit (5 min) | – | IC50 ([1]; hTRPV3 Patch P1 Inwd (nM), Phase 1 current, inward, whole-cell patch clamp): > 1000 nM; IC50 ([1]; hTRPV3 Patch P2 Inwd (nM), Phase 2 current, inward, whole-cell patch clamp): > 1000 nM
Cc1ccccc1Oc1ccc(CO)c(N2CC[C@H](Oc3ccc(C(F)(F)F)cn3)C2)c1 [Compound 1-230, (S)-(4-(o-tolyloxy)-2-(3-(5-(trifluoromethyl)pyridin-2-yloxy)pyrrolidin-1-yl)phenyl)methanol] | 100 to 1000 nM | 198 nM | – | no fit (5 min) no fit (30 min) | no fit (5 min) no fit (30 min) | –
OCc1ccc(-c2ccccc2Cl)cc1N1CC[C@H](Oc2ncccc2Cl)C1 [Compound 1-234, (S)-(2′-chloro-3-(3-(3-chloropyridin-2-yloxy)pyrrolidin-1-yl)biphenyl-4-yl)methanol] | 100 to 1000 nM | 737 nM | – | no fit (5 min) no fit (30 min) | no fit (5 min) no fit (30 min) | –
CCc1ccccc1-c1ccc(N2CC[C@H](Oc3ccc(C)cn3)C2)c(CO)n1 [Compound 1-185, (S)-(6-(2-ethylphenyl)-3-(3-(5-methylpyridin-2-yloxy)pyrrolidin-1-yl)pyridin-2-yl)methanol] | > 1000 nM | > 3200 nM | 2950 nM | no fit (5 min) no fit (30 min) | no fit (5 min) no fit (30 min) | IC50 [1, 6]: > 1000 nM
Cc1ccccc1-c1ccc(CO)c(N2CC[C@H](Oc3ncccc3Cl)C2)c1 [Compound 1-240, (S)-(3-(3-(3-chloropyridin-2-yloxy)pyrrolidin-1-yl)-2′-methylbiphenyl-4-yl)methanol] | 100 to 1000 nM | 934 nM | – | no fit (5 min) no fit (30 min) | no fit (5 min) no fit (30 min) | –
CCOC(=O)COc1cc(-c2ccccc2)ccc1N1CC[C@H](Oc2ccc(C(F)(F)F)cn2)C1 [Compound 1-134, (S)-ethyl 2-(4-(3-(5-(trifluoromethyl)pyridin-2-yloxy)pyrrolidin-1-yl)biphenyl-3-yloxy)acetate] | > 1000 nM | ~4820 nM | > 3200 nM | no fit (5 min) | – | IC50 [1, 6]: > 1000 nM
